Measured values reported in patent publication US12285034B2, “Human and non-human animal use of microbial anaplerotic oil” (HELIAE DEVELOPMENT, LLC, priority 2017, dated 2025).
Several values for one entry are separate records, joined by “and”; a condition that tells them apart may be missing. Identical values can stand only once. Like-named read-outs stand apart in the source and are kept apart here.

Tests used:
mold and bacteria = conditions: low levels; cited from earlier work
[1] = system: Aurantiochytrium acetophilum HS399; test: Propionic acid toxicity lethal threshold (Example 8); format: cell-based; conditions: for lethal threshold, Propionate Treatment (initial propionate): initial propionate approach, chronic, metric CDW, pH 6.4
Y. lipolytica = test: Model of cytoplasmic propionate in Yarrowia lipolytica; conditions: 2 g/L d propionic fed, pH 3
From the text: In this aspect, while the propionate and free proton form enters the microalgae cell through a monocarboxylic symport structure, propionic acid is membrane permeable and may be diffused directly into the microalgae cell. Therefore, in this aspect, the uptake of propionate can be controlled by the cell, and the uptake of propionic acid may not be controlled by the cell. As an example, the uncontrolled uptake of propionic acid presumably lowers the internal Aurantiochytrium cell pH; in turn, the cell attempts to maintain its pH homeostasis by pumping protons out of the cell. […] In one implementation, the change in pH may be calculated with the following equation derived from the Henderson and Hasselbalch equation: […]
In these implementations, the results illustrate that growth of the Y. lipolytica may not be affected by up to 2 g/L d propionic fed despite the low pH (3) present.

[2] = system: Aurantiochytrium acetophilum HS399; test: Cyanocobalamin and propionate deposition, flask (Example 10); format: cell-based; conditions: for Final Propionate: initial 3 g/L; for Cell dry weight: propionate 3 g/L
[3] = system: Yarrowia lipolytica ATCC18944; format: cell-based; conditions: for Total Fatty Acids / Total Lipids: 168 h
Experimental: Culture conditions. In one implementation, Yarrowia lipolytica ATCC18944 can be cultivated in triplicates (n=3) in a medium containing (g/L): glycerol (80), monosodium […]), yeast extract (1), NaCl (12.5), MgSO4 (7), H2O (2.5), KCl (0.5), CaCl2 (0.1), KH2PO4 (0.5), trace metal solution (5 mL) and vitamin solution (1 mL). The trace element solution may contain (g/L): […] The vitamin solution can be filter-sterilized (e.g., using 0.2 μm pore size filter) containing (mg L-1): thiamine (100), biotin (0.5) and cyanocobalamin (0.5) unless otherwise stated. In some implementations cyanocobalamin might be added to or subtracted from the medium formulation to change or impact propionic acid deposition in OCFA. […] In one implementation, a concentration of the cyanocobalamin and/or cobalt in the culture medium can be below 0.4 μM. […] The flasks can be incubated in the dark in an orbital shaker at 180 rpm, 27° C. In this implementation, sodium propionate is fed batch every day according to respective treatments. […] Analyses. Cell dry weights can be obtained by drying samples that are previously vacuum filtrated (e.g., using 0.2 μm pore size filters). Residual propionate is analyzed directly by high performance liquid chromatography (HPLC). Lipids and total fatty acids are analyzed using a direct extraction, transesterification followed by gas chromatography (GC) and detection by flame ionization (FID). The different fatty acids are identified and quantified using appropriate internal and external standards. Propionic acid deposition rate.

[4] = system: Aurantiochytrium acetophilum HS399; format: cell-based
From the text: In another implementation, a New Brunswick 10 L Bioflo Pro 300 fermenter (Eppendorf) can be used to provide an improvement in the productivity of OCFAs accumulation, previously identified in flasks and bubble columns. In this implementation, a bioprocess can be devised to incorporate one or more portions of one or more techniques described herein. […] As an example, in this implementation, the pH-auxostat is operated at a pH set point of 6.5 to mitigate propionic toxicity. […] A control treatment can be provided […] propionate, to be used as comparison. […] The fermenters are aerated at 0.5 vvm and are maintained at 27° C. under axenic conditions. […] This medium can also contain a trace element solution (25 ml/L) and vitamin solution (5 ml/L). The trace element solution contains (g/L): […] In this example, the fermenter is fed another 5-6 L of a medium containing (g/L): ammonium phosphate (2.5), ammonium hydroxide (29% pure) (15.2), corn syrup DE95 (1143). This medium can also contain a trace element solution (25 ml/L) and a vitamin solution (5 ml/L). In this example, this medium is fed in a DO-stat mode in response to dissolved oxygen values detected above 15% saturation. […] The pH is maintained at 5.8 using NaOH, while the batch ammonia is consumed. The pH can drift to higher values when the residual ammonia is substantially exhausted from the fermenter. […] Culture materials and media can be autoclaved (e.g., 121° C., 15 min) while separating the nitrogen and the carbon source. Foam can be controlled (e.g., automatically) through the addition of (<1 ml/L) Hodag antifoam. […] Residual glucose can be analyzed from culture supernatant (e.g., 5000 g; 5 min) using a colorimetric method based on glucose […] activity. Residual acetate and propionate can be analyzed by HPLC using an acceptable external standard.

[5] = system: Aurantiochytrium acetophilum HS399; test: Model of intracellular (cytosolic) propionate, Henderson-Hasselbalch (Example 4)
From the text: In one implementation, the change in pH may be calculated with the following equation derived from the Henderson and Hasselbalch equation: […]

[6] = daily propionate 0+0+1+1+1+1 g/L
[7] = daily propionate 0+0+2+2+2+2 g/L
[8] = 192 h, itaconic acid 0 / propionate 6 g/L

For `CCC(=O)O` [Propionate, propionic acid], the “level inhibiting growth of mold and bacteria” value (mold and bacteria) is listed as < 1 % by weight, the “lethal threshold, Propionate Treatment (initial propionate)” value ([1]; listed as Propionic acid) is listed as 20 g/L and the “lethal threshold, Propionate Treatment (initial propionate)” value ([1]; listed as propionate) is listed as 20 g/L and 30 g/L. For the same compound, the “lethal threshold, Propionate Treatment” value ([1]; pH drift approach, acute, metric OUR, pH 5.3) was 2.3 ± 0.1 g/L, the “pH at which oxygen uptake rate dropped (tolerance limit)” value ([1]; residual propionate 2.3-2.4 g/L, pH ramp 7 to 4) was 5.3 and the “accumulation of cytoplasmic propionate” value (Y. lipolytica) was 328 g/L. The Propionate deposition ([2]; cyanocobalamin 0 μM, listed as Propionic acid) was 99.9 ± 5.8 % fed, the Propionate deposition ([2]; cyanocobalamin 0 μM, listed as propionate) was 99.5 % fed and the Propionate deposition ([2]; cyanocobalamin 0.00037 μM) was 47.0 ± 0.9 % fed. For the same compound, the Propionate deposition ([2]; cyanocobalamin 0.37 μM) was 10.3 ± 1.0 % fed, the “Final Propionate” value ([2]; cyanocobalamin 0 μM) was 0.36 g/L and the “Final Propionate” value ([2]; cyanocobalamin 0.00037 μM) was 0.1 g/L. The “Final Propionate” value ([2]; cyanocobalamin 0.37 μM) was 0.06 g/L, the Cell dry weight ([2]; cyanocobalamin 0 μM) was 35.0 ± 1.2 g/L and the Cell dry weight ([2]; cyanocobalamin 0.00037 μM) was 32.0 ± 0.7 g/L. For the same compound, the Cell dry weight ([2]; cyanocobalamin 0.37 μM) was 37.0 ± 1.4 g/L, the “daily propionic feed not affecting growth” value [3] was “up to 2 g/L d” and the “Total Fatty Acids” value [3, 6] was 17.3 ± 1.6 % DW. For the same compound, the “Total Lipids” value [3, 6] was 19.0 ± 0.0 % DW, the “Total Fatty Acids” value [3, 7] was 16.2 ± 0.5 % DW and the “Total Lipids” value [3, 7] was 18.3 ± 0.6 % DW. The “Total Fatty Acids” value ([3]; daily propionate 0 + 0.6 g/L) was 21.3 ± 2.8 % DW, the “Total Lipids” value ([3]; daily propionate 0 + 0.6 g/L) was 21.7 ± 3.2 % DW and the “Total Fatty Acids” value ([3]; daily propionate 0.3 + 0.3 g/L) was 21.7 ± 2.5 % DW. For the same compound, the “Total Lipids” value ([3]; daily propionate 0.3 + 0.3 g/L) was 23.7 ± 3.5 % DW, the Cell dry weight [3, 8] was 8.3 ± 1.2 g/L and the Consumed propionate [3, 8] was 5.1 ± 1.5 g/L. For the same compound, the “Odd chain fatty acids” value [3, 8] was 1.3 ± 0.5 % DW, the Propionic acid deposition [3, 8] was 0.6 ± 0.1% and the “growth on propionate as sole carbon source” value ([3]; FIG. 25) was “able to grow”. For the same compound, the Consumed propionate ([3]; cyanocobalamin 0 μM) was 2.6 g/L, the Propionate deposition ([3]; cyanocobalamin 0 μM) was 0.99% and the Consumed propionate ([3]; cyanocobalamin 0.00037 μM) was 1.7 g/L. For the same compound, the Propionate deposition ([3]; cyanocobalamin 0.00037 μM) was 0.83%, the Cell dry weight ([3]; propionate 0+0+2+2+2+2 g/L d, cyanocobalamin 0 μM) was 6.0 g/L and the Cell dry weight ([3]; propionate 0+0+2+2+2+2 g/L d, cyanocobalamin 0.00037 μM) was 5.3 g/L. The “propionic acid deposition rates in OCFAs” value ([3]; relatively low) was < 3 % TFA, the OCFAs ([3]; total propionate fed batch 8 g/L) was 0.33 g/L and the effect on growth [4] was “slightly inhibited”. The OCFAs ([4]; propionic acid titration) was 60 % TFA, the accumulated lipids ([4]; propionic acid titration) was 70 % DW and the average cumulative productivities ([4]; propionic acid titration) was “approximately 30 g/L/d”. The “productivity of OCFAs” value ([4]; propionic acid titration) was 10 g/L/day, the Cell dry weight ([4]; propionic acid titration, 10 L fermenter) was 170 g/L and the “consumption of propionic per gram of biomass” value ([4]; total consumed during process) was 0.155 g. For the same compound, the intracellular propionate concentration ([5]; from 1 g/L, pH 7 (growth inhibitory)) was 1 g/L, the intracellular propionate concentration ([5]; from ~15 g/L residual, pH 6 (lethal)) was 176 g/L and the “lethal threshold, Cytosolic Propionate” value ([5]; initial propionate 20 g/L, pH 6.4) was 97.7 g/L. For the same compound, the “D1-D4 Average Internal Propionic Acid (Theoretical Values)” value (“D1-D4 Average Internal Propionic Acid” for short) ([5]; pH 5 set point) was 56.70 g/L, the “D1-D4 Average Internal Propionic Acid” value ([5]; pH 6 set point) was 4.18 g/L and the “D1-D4 Average Internal Propionic Acid” value ([5]; pH 7 set point) was 0.13 g/L. For the same compound, the “lethal threshold, Cytosolic Propionate” value ([5]; pH drift approach, pH 5.3, 2.3 g/L, listed as Propionic acid) was 107.5 ± 3.5 g/L and the “lethal threshold, Cytosolic Propionate” value ([5]; pH drift approach, pH 5.3, 2.3 g/L, listed as propionate) was 107.5 g/L.
